Source: PubChem BioAssay AID1259407 (Chemical Carcinogenesis Research Information System (CCRIS), 2018)
Calls of active or inactive are those of the source. How the calls were made is not given here.

Test system: CCRIS mutagenicity, Ames/micronucleus/aberration tests
Test: CCRIS mutagenicity studies
[1] = Test System: AMES SALMONELLA TYPHIMURIUM, Strain/Indicator: TA98, Metabolic Activation: NONE, Method: STANDARD PLATE
[2] = Test System: AMES SALMONELLA TYPHIMURIUM, Strain/Indicator: TA100, Metabolic Activation: NONE, Method: STANDARD PLATE
[3] = Test System: AMES SALMONELLA TYPHIMURIUM, Strain/Indicator: TA1535, Metabolic Activation: NONE, Method: STANDARD PLATE
[4] = Test System: AMES SALMONELLA TYPHIMURIUM, Strain/Indicator: TA1537, Metabolic Activation: NONE, Method: STANDARD PLATE

O=C1c2cccc(O)c2C(=O)c2c(O)cccc21
mutagenic call [1]: inactive; negative | mutagenic call (Test System: AMES SALMONELLA TYPHIMURIUM, Strain/Indicator: TA98, Metabolic Activation: RAT, LIVER, S-9, AROCLOR 1254, Method: STANDARD PLATE): inactive; negative | mutagenic call [2]: inactive; negative | mutagenic call (Test System: AMES SALMONELLA TYPHIMURIUM, Strain/Indicator: TA100, Metabolic Activation: RAT, LIVER, S-9, AROCLOR 1254, Method: STANDARD PLATE): inactive; negative | mutagenic call (Test System: AMES SALMONELLA TYPHIMURIUM, Strain/Indicator: TA102, Metabolic Activation: NONE, Method: PREINCUBATION): active; positive | mutagenic call (Test System: AMES SALMONELLA TYPHIMURIUM, Strain/Indicator: TA102, Metabolic Activation: NONE, Method: STANDARD PLATE): inactive; negative | mutagenic call (Test System: AMES SALMONELLA TYPHIMURIUM, Strain/Indicator: TA102, Metabolic Activation: RAT LIVER S-9, AROCLOR 1254, Method: STANDARD PLATE): active; positive | mutagenic call (Test System: AMES SALMONELLA TYPHIMURIUM, Strain/Indicator: TA102, Metabolic Activation: RAT, LIVER, S-9, AROCLOR 1254, Method: STANDARD PLATE): active; positive | mutagenic call (Test System: AMES SALMONELLA TYPHIMURIUM, Strain/Indicator: TA102, Metabolic Activation: RAT, LIVER, S-9, PHENOBARBITONE AND BETA-NAPHTHOFLAVONE, Method: STANDARD PLATE): active; positive | mutagenic call (Test System: AMES SALMONELLA TYPHIMURIUM, Strain/Indicator: TA102, Metabolic Activation: RAT, LIVER, S-9, Method: PREINCUBATION): active; positive | mutagenic call (Test System: AMES SALMONELLA TYPHIMURIUM, Strain/Indicator: TA102, Metabolic Activation: S-9, Method: STANDARD PLATE): active; positive | mutagenic call [3]: inactive; negative | mutagenic call (Test System: AMES SALMONELLA TYPHIMURIUM, Strain/Indicator: TA1535, Metabolic Activation: RAT, LIVER, S-9, AROCLOR 1254, Method: STANDARD PLATE): inactive; negative | mutagenic call (Test System: AMES SALMONELLA TYPHIMURIUM, Strain/Indicator: TA1537, Metabolic Activation: NONE, Method: PREINCUBATION): active; positive | mutagenic call [4]: active; positive | mutagenic call (Test System: AMES SALMONELLA TYPHIMURIUM, Strain/Indicator: TA1537, Metabolic Activation: RAT, LIVER, S-9, AROCLOR 1254, Method: STANDARD PLATE): active; positive | mutagenic call (Test System: AMES SALMONELLA TYPHIMURIUM, Strain/Indicator: TA1537, Metabolic Activation: RAT, LIVER, S-9, Method: PREINCUBATION): active; positive | mutagenic call (Test System: AMES SALMONELLA TYPHIMURIUM, Strain/Indicator: TA1538, Metabolic Activation: NONE, Method: STANDARD PLATE): inactive; negative | mutagenic call (Test System: AMES SALMONELLA TYPHIMURIUM, Strain/Indicator: TA1538, Metabolic Activation: RAT, LIVER, S-9, AROCLOR 1254, Method: STANDARD PLATE): inactive; negative | mutagenic call (Test System: AMES SALMONELLA TYPHIMURIUM, Strain/Indicator: TA2638, Metabolic Activation: S-9, Method: STANDARD PLATE): active; positive | mutagenic call (Test System: E. COLI, Strain/Indicator: WP2 (PKM101), Metabolic Activation: RAT, LIVER, S-9, PHENOBARBITONE AND BETA-NAPHTHOFLAVONE, Method: STANDARD PLATE): inactive; negative | mutagenic call (Test System: E. COLI, Strain/Indicator: WP2 (PKM101), Metabolic Activation: S-9, Method: STANDARD PLATE): inactive; negative | mutagenic call (Test System: E. COLI, Strain/Indicator: WP2 UVRA (PKM101), Metabolic Activation: RAT, LIVER, S-9, PHENOBARBITONE AND BETA-NAPHTHOFLAVONE, Method: STANDARD PLATE): inactive; negative | mutagenic call (Test System: E. COLI, Strain/Indicator: WP2 UVRA (PKM101), Metabolic Activation: S-9, Method: STANDARD PLATE): inactive; negative

Nc1ccc2c(=O)[nH]sc2c1
mutagenic call [1]: inactive; negative | mutagenic call (Test System: AMES SALMONELLA TYPHIMURIUM, Strain/Indicator: TA98, Metabolic Activation: S-9, Method: STANDARD PLATE): inactive; negative | mutagenic call [2]: inactive; negative | mutagenic call (Test System: AMES SALMONELLA TYPHIMURIUM, Strain/Indicator: TA100, Metabolic Activation: S-9, Method: STANDARD PLATE): inactive; negative | mutagenic call [3]: inactive; negative | mutagenic call (Test System: AMES SALMONELLA TYPHIMURIUM, Strain/Indicator: TA1535, Metabolic Activation: S-9, Method: STANDARD PLATE): inactive; negative | mutagenic call [4]: inactive; negative | mutagenic call (Test System: AMES SALMONELLA TYPHIMURIUM, Strain/Indicator: TA1537, Metabolic Activation: S-9, Method: STANDARD PLATE): inactive; negative

O=[N+]([O-])C(Br)(Br)Br
mutagenic call (Test System: AMES SALMONELLA TYPHIMURIUM, Strain/Indicator: TA98, Metabolic Activation: NONE, Method: PREINCUBATION): inactive; negative | mutagenic call (Test System: AMES SALMONELLA TYPHIMURIUM, Strain/Indicator: TA100, Metabolic Activation: HAMSTER, LIVER, S-9, AROCLOR 1254 (5%), Method: PREINCUBATION): inactive; negative | mutagenic call (Test System: AMES SALMONELLA TYPHIMURIUM, Strain/Indicator: TA100, Metabolic Activation: HAMSTER, LIVER, S-9, AROCLOR 1254 (10 OR 30%), Method: PREINCUBATION): inactive; negative | mutagenic call (Test System: AMES SALMONELLA TYPHIMURIUM, Strain/Indicator: TA100, Metabolic Activation: HAMSTER, LIVER, S-9, AROCLOR 1254 (30%), Method: PREINCUBATION): active; positive | mutagenic call (Test System: AMES SALMONELLA TYPHIMURIUM, Strain/Indicator: TA100, Metabolic Activation: NONE, Method: PREINCUBATION): inactive; negative | mutagenic call (Test System: AMES SALMONELLA TYPHIMURIUM, Strain/Indicator: TA100, Metabolic Activation: RAT, LIVER, S-9, AROCLOR 1254 (5%), Method: PREINCUBATION): inactive; negative | mutagenic call (Test System: AMES SALMONELLA TYPHIMURIUM, Strain/Indicator: TA100, Metabolic Activation: RAT, LIVER, S-9, AROCLOR 1254 (10%), Method: PREINCUBATION): inactive; negative | mutagenic call (Test System: AMES SALMONELLA TYPHIMURIUM, Strain/Indicator: TA1535, Metabolic Activation: RAT, LIVER, S-9, AROCLOR 1254 (5%), Method: PREINCUBATION): inactive; negative | mutagenic call (Test System: Ames Salmonella typhimurium, Strain/Indicator: RSJ100, Metabolic Activation: None, Method: Standard plate): inactive; negative | mutagenic call (Test System: Ames Salmonella typhimurium, Strain/Indicator: RSJ 100, Metabolic Activation: Rat, Liver, S-9, Aroclor, Method: Standard plate): inactive; negative | mutagenic call (Test System: Ames Salmonella typhimurium, Strain/Indicator: RSJ100, Metabolic Activation: Rat, Liver, S-9, Aroclor, Method: Standard plate): inactive; negative | mutagenic call (Test System: Ames Salmonella typhimurium, Strain/Indicator: TA98, Metabolic Activation: None, Method: Standard plate): inactive; negative | mutagenic call (Test System: Ames Salmonella typhimurium, Strain/Indicator: TA98, Metabolic Activation: Rat, Liver, S-9, Aroclor, Method: Standard plate): inactive; negative | mutagenic call (Test System: Ames Salmonella typhimurium, Strain/Indicator: TA100, Metabolic Activation: None, Method: Standard plate): inactive; negative | mutagenic call (Test System: Ames Salmonella typhimurium, Strain/Indicator: TA100, Metabolic Activation: Rat, Liver, S-9, Aroclor, Method: Standard plate): inactive; negative | mutagenic call (Test System: Ames Salmonella typhimurium, Strain/Indicator: TA104, Metabolic Activation: None, Method: Standard plate): inactive; negative | mutagenic call (Test System: Ames Salmonella typhimurium, Strain/Indicator: TA104, Metabolic Activation: Rat, Liver, S-9, Aroclor, Method: Standard plate): inactive; negative | mutagenic call (Test System: Ames Salmonella typhimurium, Strain/Indicator: TPT100, Metabolic Activation: None, Method: Standard plate): inactive; negative

CNC(=O)NO
mutagenic call [1]: inactive; negative | mutagenic call [2]: inactive; negative
